From the kinase profiling compilation of Christmann-Franck et al. (2016)

How the values were obtained:
Assay in all cases: KINOMEscan competition binding
Details in all cases: compound 10.0 µM
[1] = tested on: PIK3CA (human), P42336 [M1043I]
CDK3 (human) = CDK3 (human) (UniProt Q00526)
MERTK (human) = MERTK (human) (UniProt Q12866)
MYLK2 (human) = MYLK2 (human) (UniProt Q9H1R3)
MAP4K3 (human) = MAP4K3 (human) (UniProt Q8IVH8)
BMX (human) = BMX (human) (UniProt P51813)
[2] = target: JAK1 JH1 catalytic (human) (UniProt P23458)
PIP4K2B (human) = PIP4K2B (human) (UniProt P78356)
NEK5 (human) = NEK5 (human) (UniProt Q6P3R8)
CLK3 (human) = CLK3 (human) (UniProt P49761)
[3] = tested on: PIK3CA (human), P42336 [I800L]
PAK4 (human) = PAK4 (human) (UniProt O96013)
LTK (human) = LTK (human) (UniProt P29376)
MTOR (human) = MTOR (human) (UniProt P42345)
MAPK3 (human) = MAPK3 (human) (UniProt P27361)
FES (human) = FES (human) (UniProt P07332)
SYK (human) = SYK (human) (UniProt P43405)
RIOK1 (human) = RIOK1 (human) (UniProt Q9BRS2)
PRKD2 (human) = PRKD2 (human) (UniProt Q9BZL6)
DCLK1 (human) = DCLK1 (human) (UniProt O15075)
HUNK (human) = HUNK (human) (UniProt P57058)
SIK3 (human) = SIK3 (human) (UniProt Q9Y2K2)
ADCK3 (human) = ADCK3 (human) (UniProt Q8NI60)
[4] = tested on: PIK3CA (human), P42336 [Q546K]
MAP3K3 (human) = MAP3K3 (human) (UniProt Q99759)
MAP4K4 (human) = MAP4K4 (human) (UniProt O95819)
RPS6KA1 KD1 (human) = RPS6KA1 KD1 (human) (UniProt Q15418)
SLK (human) = SLK (human) (UniProt Q9H2G2)
STK24 (human) = STK24 (human) (UniProt Q9Y6E0)
FLT3 (human) = FLT3 (human) (UniProt P36888)
STK38L (human) = STK38L (human) (UniProt Q9Y2H1)
CAMK1G (human) = CAMK1G (human) (UniProt Q96NX5)
[5] = tested on: KIT (human), P10721 [D816H]
MINK1 (human) = MINK1 (human) (UniProt Q8N4C8)
MYO3A (human) = MYO3A (human) (UniProt Q8NEV4)
TAOK3 (human) = TAOK3 (human) (UniProt Q9H2K8)
STK32B (human) = STK32B (human) (UniProt Q9NY57)
RET (human) = RET (human) (UniProt P07949)
SRPK3 (human) = SRPK3 (human) (UniProt Q9UPE1)
HIPK2 (human) = HIPK2 (human) (UniProt Q9H2X6)
DSTYK (human) = DSTYK (human) (UniProt Q6XUX3)

Chain of SLK (human) (Q9H2G2 whole entry, looked up): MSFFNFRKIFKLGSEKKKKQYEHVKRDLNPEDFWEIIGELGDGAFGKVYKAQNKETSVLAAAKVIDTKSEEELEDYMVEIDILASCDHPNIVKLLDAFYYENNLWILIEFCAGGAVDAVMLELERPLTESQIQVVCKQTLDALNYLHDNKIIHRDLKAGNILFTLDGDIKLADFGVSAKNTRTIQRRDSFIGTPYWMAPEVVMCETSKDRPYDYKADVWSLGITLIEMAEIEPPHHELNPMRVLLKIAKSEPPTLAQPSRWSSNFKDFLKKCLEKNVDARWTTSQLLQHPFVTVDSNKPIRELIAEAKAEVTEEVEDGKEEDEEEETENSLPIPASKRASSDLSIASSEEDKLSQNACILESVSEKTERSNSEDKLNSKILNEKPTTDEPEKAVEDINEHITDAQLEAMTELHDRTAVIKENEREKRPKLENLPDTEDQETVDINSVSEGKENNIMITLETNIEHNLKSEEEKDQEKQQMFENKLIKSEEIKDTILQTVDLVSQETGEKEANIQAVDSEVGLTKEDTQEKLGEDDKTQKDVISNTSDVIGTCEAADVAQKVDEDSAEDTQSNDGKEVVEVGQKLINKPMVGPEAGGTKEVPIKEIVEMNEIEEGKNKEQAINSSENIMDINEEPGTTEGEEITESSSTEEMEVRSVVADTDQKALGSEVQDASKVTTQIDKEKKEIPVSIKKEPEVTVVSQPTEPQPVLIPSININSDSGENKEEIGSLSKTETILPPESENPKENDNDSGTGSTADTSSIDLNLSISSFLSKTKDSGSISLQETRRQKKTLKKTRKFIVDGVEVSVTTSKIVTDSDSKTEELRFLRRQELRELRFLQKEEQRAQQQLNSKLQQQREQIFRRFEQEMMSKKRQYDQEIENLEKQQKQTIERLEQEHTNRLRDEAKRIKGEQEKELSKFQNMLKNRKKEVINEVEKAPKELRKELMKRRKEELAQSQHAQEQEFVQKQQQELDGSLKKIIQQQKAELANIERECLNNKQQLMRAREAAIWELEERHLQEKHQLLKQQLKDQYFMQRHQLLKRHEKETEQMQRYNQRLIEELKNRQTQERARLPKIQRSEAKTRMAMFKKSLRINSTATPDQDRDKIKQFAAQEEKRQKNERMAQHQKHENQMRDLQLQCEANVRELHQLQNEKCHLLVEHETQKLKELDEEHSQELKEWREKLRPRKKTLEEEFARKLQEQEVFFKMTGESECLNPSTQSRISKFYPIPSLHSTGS
Chain of BMX (human) (P51813 whole entry, looked up): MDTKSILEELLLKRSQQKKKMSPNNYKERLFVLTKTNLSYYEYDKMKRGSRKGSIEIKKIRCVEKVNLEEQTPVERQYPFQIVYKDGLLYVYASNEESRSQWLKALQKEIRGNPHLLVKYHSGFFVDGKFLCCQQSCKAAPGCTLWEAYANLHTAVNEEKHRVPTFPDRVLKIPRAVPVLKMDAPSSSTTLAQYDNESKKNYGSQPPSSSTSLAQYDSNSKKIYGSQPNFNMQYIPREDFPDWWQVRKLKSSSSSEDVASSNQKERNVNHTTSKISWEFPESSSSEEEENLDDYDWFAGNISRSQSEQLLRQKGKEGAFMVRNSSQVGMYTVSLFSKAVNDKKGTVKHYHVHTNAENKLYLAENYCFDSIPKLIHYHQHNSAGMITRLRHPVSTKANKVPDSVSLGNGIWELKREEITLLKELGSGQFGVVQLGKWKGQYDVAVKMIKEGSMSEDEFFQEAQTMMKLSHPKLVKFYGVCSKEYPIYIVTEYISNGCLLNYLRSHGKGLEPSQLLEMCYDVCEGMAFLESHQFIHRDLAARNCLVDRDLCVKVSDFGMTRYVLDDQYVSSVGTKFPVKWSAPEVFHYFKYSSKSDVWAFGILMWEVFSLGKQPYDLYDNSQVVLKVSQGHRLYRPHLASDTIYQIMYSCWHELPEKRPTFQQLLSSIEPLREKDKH
Chain of RIOK1 (human) (Q9BRS2 whole entry, looked up): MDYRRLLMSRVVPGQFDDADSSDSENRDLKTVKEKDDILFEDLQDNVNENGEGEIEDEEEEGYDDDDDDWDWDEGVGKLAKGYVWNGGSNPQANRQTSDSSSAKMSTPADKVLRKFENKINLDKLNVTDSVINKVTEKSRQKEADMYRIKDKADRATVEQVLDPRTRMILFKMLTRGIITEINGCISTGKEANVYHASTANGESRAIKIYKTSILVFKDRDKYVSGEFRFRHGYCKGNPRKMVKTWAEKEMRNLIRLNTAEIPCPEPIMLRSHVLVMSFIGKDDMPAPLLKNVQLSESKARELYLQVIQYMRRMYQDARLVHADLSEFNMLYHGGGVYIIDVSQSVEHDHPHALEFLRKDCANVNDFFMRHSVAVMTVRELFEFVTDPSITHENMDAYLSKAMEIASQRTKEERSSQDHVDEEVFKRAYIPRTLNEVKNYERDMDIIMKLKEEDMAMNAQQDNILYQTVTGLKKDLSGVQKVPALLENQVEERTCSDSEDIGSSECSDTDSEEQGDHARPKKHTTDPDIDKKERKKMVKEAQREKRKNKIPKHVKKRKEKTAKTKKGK
Chain of SRPK3 (human) (Q9UPE1 whole entry, looked up): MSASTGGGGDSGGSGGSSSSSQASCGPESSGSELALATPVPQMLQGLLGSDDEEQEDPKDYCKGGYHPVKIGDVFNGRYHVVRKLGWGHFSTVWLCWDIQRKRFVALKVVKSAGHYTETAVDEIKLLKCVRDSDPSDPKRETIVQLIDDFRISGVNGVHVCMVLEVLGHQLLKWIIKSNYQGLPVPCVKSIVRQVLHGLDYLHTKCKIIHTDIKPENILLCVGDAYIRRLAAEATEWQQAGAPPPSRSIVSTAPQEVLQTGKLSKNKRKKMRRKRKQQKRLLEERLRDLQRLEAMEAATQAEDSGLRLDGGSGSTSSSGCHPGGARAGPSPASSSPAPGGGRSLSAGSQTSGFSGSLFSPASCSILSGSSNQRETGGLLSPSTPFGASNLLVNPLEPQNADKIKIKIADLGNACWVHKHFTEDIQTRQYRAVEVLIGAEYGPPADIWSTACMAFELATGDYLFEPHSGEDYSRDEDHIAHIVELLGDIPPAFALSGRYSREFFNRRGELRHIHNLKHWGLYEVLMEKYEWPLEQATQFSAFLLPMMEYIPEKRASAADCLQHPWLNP
Chain of HIPK2 (human) (Q9H2X6 whole entry, looked up): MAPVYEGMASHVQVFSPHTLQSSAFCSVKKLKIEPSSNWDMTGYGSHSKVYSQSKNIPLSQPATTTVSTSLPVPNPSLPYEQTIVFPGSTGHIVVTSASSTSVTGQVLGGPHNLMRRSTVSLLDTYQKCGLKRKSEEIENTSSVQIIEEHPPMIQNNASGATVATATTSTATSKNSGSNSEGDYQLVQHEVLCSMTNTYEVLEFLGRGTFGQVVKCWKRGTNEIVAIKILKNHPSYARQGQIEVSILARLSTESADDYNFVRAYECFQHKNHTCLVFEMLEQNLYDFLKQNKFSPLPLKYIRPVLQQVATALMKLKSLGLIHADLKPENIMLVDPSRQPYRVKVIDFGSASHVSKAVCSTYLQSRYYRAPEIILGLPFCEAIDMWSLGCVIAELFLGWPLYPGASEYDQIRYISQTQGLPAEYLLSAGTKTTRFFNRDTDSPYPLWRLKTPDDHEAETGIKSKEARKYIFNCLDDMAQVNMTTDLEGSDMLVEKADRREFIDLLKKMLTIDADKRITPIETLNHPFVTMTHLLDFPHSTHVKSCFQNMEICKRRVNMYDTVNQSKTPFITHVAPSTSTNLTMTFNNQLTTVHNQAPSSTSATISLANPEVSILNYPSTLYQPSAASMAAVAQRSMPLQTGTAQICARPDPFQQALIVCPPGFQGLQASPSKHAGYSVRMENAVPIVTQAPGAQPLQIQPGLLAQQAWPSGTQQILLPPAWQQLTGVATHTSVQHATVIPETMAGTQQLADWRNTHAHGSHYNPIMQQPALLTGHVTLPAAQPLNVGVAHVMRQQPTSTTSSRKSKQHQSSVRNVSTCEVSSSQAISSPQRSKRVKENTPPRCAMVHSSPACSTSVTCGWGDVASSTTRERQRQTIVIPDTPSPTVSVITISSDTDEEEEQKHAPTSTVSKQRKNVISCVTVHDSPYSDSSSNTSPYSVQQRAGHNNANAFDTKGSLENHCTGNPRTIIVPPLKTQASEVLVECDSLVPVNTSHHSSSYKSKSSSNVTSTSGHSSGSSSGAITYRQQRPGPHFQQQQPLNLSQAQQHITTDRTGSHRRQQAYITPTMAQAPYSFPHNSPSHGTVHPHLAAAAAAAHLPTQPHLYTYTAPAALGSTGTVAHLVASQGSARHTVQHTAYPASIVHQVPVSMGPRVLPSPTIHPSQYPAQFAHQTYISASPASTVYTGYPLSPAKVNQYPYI
Chain of MAPK3 (human) (P27361 whole entry, looked up): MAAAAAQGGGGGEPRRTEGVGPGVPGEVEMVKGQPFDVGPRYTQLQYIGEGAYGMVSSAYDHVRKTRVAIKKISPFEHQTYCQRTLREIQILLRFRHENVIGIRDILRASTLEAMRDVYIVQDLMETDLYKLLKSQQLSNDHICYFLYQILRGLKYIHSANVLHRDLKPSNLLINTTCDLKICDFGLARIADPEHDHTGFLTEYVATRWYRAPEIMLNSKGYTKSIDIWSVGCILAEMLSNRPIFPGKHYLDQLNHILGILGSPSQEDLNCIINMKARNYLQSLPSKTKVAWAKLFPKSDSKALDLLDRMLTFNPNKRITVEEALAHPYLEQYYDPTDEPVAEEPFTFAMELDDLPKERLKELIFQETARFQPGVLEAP
Chain of CDK3 (human) (Q00526 whole entry, looked up): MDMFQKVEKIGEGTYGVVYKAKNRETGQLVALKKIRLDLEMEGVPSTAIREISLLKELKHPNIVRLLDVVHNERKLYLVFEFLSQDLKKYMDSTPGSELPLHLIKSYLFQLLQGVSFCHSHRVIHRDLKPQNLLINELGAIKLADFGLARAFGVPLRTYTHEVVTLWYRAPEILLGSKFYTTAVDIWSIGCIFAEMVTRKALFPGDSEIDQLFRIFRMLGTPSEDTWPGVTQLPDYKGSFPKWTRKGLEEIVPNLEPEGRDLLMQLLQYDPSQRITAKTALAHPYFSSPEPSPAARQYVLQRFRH

COc1ccc(-c2ccc3c(N4CCOCC4)nc(N4C[C@@H](C)O[C@@H](C)C4)nc3n2)cc1CO
kinase still bound, per cent of control [1]: 2%
per cent of control (CDK3 (human)): 100%
kinase still bound, per cent of control (MERTK (human)): 100%
kinase still bound, per cent of control (MYLK2 (human)): 78%
kinase still bound, per cent of control (MAP4K3 (human)): 85%
kinase still bound, per cent of control (BMX (human)): 86%
kinase still bound, per cent of control [2]: 84%
kinase still bound, per cent of control (PIP4K2B (human)): 100%
kinase still bound, per cent of control (NEK5 (human)): 100%
kinase still bound, per cent of control (CLK3 (human)): 90%
kinase still bound, per cent of control [3]: 0%
kinase still bound, per cent of control (PAK4 (human)): 86%
kinase still bound, per cent of control (LTK (human)): 96%
kinase still bound, per cent of control (MTOR (human)): 0%
kinase still bound, per cent of control (MAPK3 (human)): 100%
kinase still bound, per cent of control (FES (human)): 99%
kinase still bound, per cent of control (SYK (human)): 100%
kinase still bound, per cent of control (RIOK1 (human)): 51%
kinase still bound, per cent of control (PRKD2 (human)): 96%
kinase still bound, per cent of control (DCLK1 (human)): 100%
kinase still bound, per cent of control (HUNK (human)): 90%
kinase still bound, per cent of control (SIK3 (human)): 97%
kinase still bound, per cent of control (ADCK3 (human)): 87%
kinase still bound, per cent of control [4]: 2.8%
kinase still bound, per cent of control (MAP3K3 (human)): 76%
kinase still bound, per cent of control (MAP4K4 (human)): 88%
kinase still bound, per cent of control (RPS6KA1 KD1 (human)): 70%
kinase still bound, per cent of control (SLK (human)): 98%
kinase still bound, per cent of control (STK24 (human)): 89%
kinase still bound, per cent of control (FLT3 (human)): 71%
kinase still bound, per cent of control (STK38L (human)): 95%
kinase still bound, per cent of control (CAMK1G (human)): 94%
kinase still bound, per cent of control [5]: 100%
kinase still bound, per cent of control (MINK1 (human)): 100%
kinase still bound, per cent of control (MYO3A (human)): 97%
kinase still bound, per cent of control (TAOK3 (human)): 90%
kinase still bound, per cent of control (STK32B (human)): 100%
kinase still bound, per cent of control (RET (human)): 91%
kinase still bound, per cent of control (SRPK3 (human)): 75%
kinase still bound, per cent of control (HIPK2 (human)): 58%
kinase still bound, per cent of control (DSTYK (human)): 78%
